Test results as given in patent US10001483B2, “Methods for the treatment of Kaposi's sarcoma or KSHV-induced lymphoma using immunomodulatory compounds, and uses of biomarkers” (Celgene Corporation, priority 2015, dated 2018).

Experiments:
[1] = test system: MHC-1; assay: K3/K5 mediated MHC-1 down-regulation in K3 or K5 transfected KSHV-negative BJAB cells; assay type: cell-based
Experimental: FIGS. 9A-9E. […] 24 hours after electroporation, FACS analysis was done using half of the cells. […] The remaining cells were subjected to lysis, protein extraction, and western blot. Blots were probed with antibodies to the indicated proteins.

[2] = Pharmacokinetic studies: plasma concentrations of pomalidomide in KS patients (HPLC with fluorescence detection); assay type: in vivo, human
Experimental: A non-compartmental analysis was used to calculate plasma pharmacokinetic parameters (Pharsight Corp, Mountain View, Calif.). The maximum plasma concentration (CMAX) and time to CMAX (TMAX) were recorded as observed values; the area under the plasma concentration vs time curve (AUC) was calculated using the log-linear trapezoidal method. For day 1 of cycle 1 (C1D1), the AUC extrapolated to infinity (AUCINF) was used, unless the percent extrapolated exceeded 25%, in which case AUCLAST (to the last quantifiable time point) was used. The steady-state exposure on C1D15 was calculated using AUCLAST.
Pharmacokinetic Studies were performed pre-dose on cycle 1 day 1 and day 15. Across all analyzed doses: TMAX=2.71±1.73 hrs, T1/2=7.10±2.48 hours, and CMAX=61.21±29.30 ng/mL. […] Comparing HIV infected with non-infected subjects, for CMAX at C1D1 p=0.45, at C1D15 p=0.80 at C1D15 and comparing changes from baseline p=0.91; for AUCLAST at C1D1, p=0.63; at C1D15 p=0.97 and comparing changes from baseline p=0.91.

[3] = test system: KSHV K3 and K5; assay: K3 and K5 protein expression in BCBL-1 cells after lytic activation, Western blot; assay type: cell-based; conditions: following lytic activation
Experimental: (§1) Western Blotting: At the end of an incubation period, cells were lysed and nuclear/cytoplasmic extracts were prepared using the NE-PER nuclear extraction kit (Pierce). Samples were subjected to SDS-PAGE (4 to 12% NuPAGE Tris-Bis) (Invitrogen) and transferred to nitrocellulose. The membrane was blocked with 5% w/v nonfat dry milk in 1×TBST (10 mM Tris-Hcl, […], 150 mM NaCl, and 0.05% Tween 20) overnight at 4° C. Blots were incubated with indicated antibodies such as anti-IRF-7 (Santa Cruz), anti-IRF-4 (Cell Signaling), anti-p21 (Cell Signaling), anti-NF-κB p65 (Cell Signaling), anti-NF-κB phospho-p65 (Cell Signaling), IFN-γRa (Cell Signaling), or anti-CRBN (Sigma-Aldrich), and subjected to the appropriate secondary antibody conjugated to alkaline phosphatase (Promega). Bands were visualized with Western Blue stabilized substrate (Promega). Membranes were scanned and images were processed as described.
Flow Cytometry Analysis and Antibodies: For flow cytometry analysis of MHC-I expression, cells were plated at 400,000 cells/mL and pretreated with immunomodulatory agents as indicated. After twenty-four hours, cells were treated with butyrate at indicated amounts to induce lytic activation and down-regulation of MHC-I. After another twenty-four hours, cells were analyzed on FACS and extracts were prepared as indicated. […]

[4] = Safety and tolerability of pomalidomide in KS patients; assay type: in vivo, human
Experimental: (§2) Aspirin at 81 mg daily was administered as thromboprophylaxis. Assessments were performed every 4 weeks for lymphocyte numbers, Kaposi sarcoma associated herpesvirus (KSHV/HHV8) viral load (VL) and HIV VL and at 8 weeks for T cell subsets and activation by immunophenotyping of peripheral blood mononuclear cells (PBMC). KSHV VL in PBMC and HIV VL in plasma were assayed by quantitative PCR; an ultrasensitive single copy assay was used for HIV VL. Changes from baseline were evaluated using the Wilcoxon signed rank test with P<0.005 considered significant given multiple comparisons. Differences in changes between the HIV infected and uninfected groups were evaluated using the Wilcoxon rank sum test. Median time of the patients on therapy 7 cycles (range 2-12).
Subsequent cycles commenced on day 29. In certain cases cycles were commenced when ANC was ≥1000 cells/mm3, hemoglobin≥10 g/dL, platelets≥50,000 cells/mm3 and otherwise held until these thresholds were met. […] HIV-infected patients continued baseline ART without adjustment. Prophylaxis for opportunistic infections including Pneumocystis jiroveci was administered following current guidelines.

[5] = test system: p21; assay: Western blot of p21 in PEL cell lines; assay type: cell-based; conditions: 10 ii M for 72 hours; FIGS. 6A-6B
Experimental: Cell Culture: The PEL lines JSC-1 (John Hopkins University, Baltimore, Md.), dually infected with Epstein-Barr virus (EBV) and HHV-8, and BC-3 (ATCC, Rockville, Md.) and BCBL-1(National Institute of Health AIDS Research and Reagent Program, Rockville, Md.), harboring KSHV only, and CA-46, an uninfected cancerous B-cell line, were grown in RPMI 1640 medium (Invitrogen, Carlsbad, Calif.) supplemented with 15% fetal-bovine serum (FBS) (Thermo Scientific, Rockford, Ill.) and Pen/Strep glutamine at 37° C. with 5% CO2.
as §1, with “Membranes were scanned and images were processed as described.” left out

[6] = test system: HIV-1; assay: Plasma HIV viral load by ultrasensitive single copy assay; assay type: in vivo
Experimental: as §2
Laboratory Assays: Lymphocyte subsets were assessed by fluorescent-activated cell sorting using the BlueOcean platform (Beckman Coulter, Carlsbad, Calif.). Plasma HIV-1 […] was evaluated using an ultrasensitive assay whose sensitivity was 1 viral copy per plasma volume. Briefly, a triplex PCR was used using a modification of a previously reported assay with three primers: one spanning the start codon of gag, one in the gag coding region, and one internal control. Samples were tested from 6 mL plasma aliquots, with 12 replicants per sample. KSHV VL in peripheral blood mononuclear cells (PBMC) was assessed by quantitative real-time PCR.
Changes in immunologic and virologic parameters were evaluated by a Wilcoxon signed rank test. Exact Wilcoxon rank sum tests were used to compare pharmacokinetic parameters at each time point and differences from baseline. All p-values are two-tailed and reported without adjustment for multiple comparisons. HRQL was analyzed using a using a mixed model repeated measures analysis for FAHI and the marginal homogeneity test for KS-specific questions

[7] = human, po, plasma, across all analyzed doses, cycle 1 day 1 and day 15, 5 mg orally
[8] = 5 mg per day for 21 days of 28 day cycles
[9] = restricted to the 15 HIV positive subjects, paired data for 10-13 patients

In the case of Nc1cccc2c1C(=O)N(C1CCC(=O)NC1=O)C2=O (stereo not shown) [pomalidomide, 4-amino-2-(2,6-dioxopiperidin-3-yl)isoindoline-1,3-dione], the “down-regulation of MHC-1 by plasmids encoding K3 or K5” value ([1]; 10 μM for 48 hours before electroporation) is reported as “prevented”, the “prevention of MHC I knockdown, FACS analysis with K5” value ([1]; 10 μM for 48 hours, GFP-positive cells) is reported as “not consistently observed” and the “MHC I knockdown, western blots” value ([1]; 10 μM for 48 hours, K3 or K5 plasmids) is reported as “preventing MHC I knockdown”. The accumulation ([2]; from day 1 to day 15) was “No evidence of accumulation”, the “differences in pharmacokinetics by ART regimen” value ([2]; human, in vivo) was “No significant differences” and the “differences in pharmacokinetics by HIV status” value ([2]; human, in vivo) was “No significant differences”. The Tmax [2, 7] was 2.71 ± 1.73 h, the half-life [2, 7] was 7.1 ± 2.48 h and the Cmax ([2]; plasma, across all analyzed doses, cycle 1 day 1 and day 15, 5 mg orally) was 61.21 ± 29.30 ng/mL. The “protein expression level of KSHV K3 or K5” value ([3]; FIG. 8) was “appears not to prevent K3 and K5 expression”, the “protein expression level of KSHV K3 or K5” value ([3]; FIG. 8, listed as Pomalidomide) was “did not significantly change the protein expression level” and the “adverse events, severity” value [4, 8] was “generally mild, self limited, or reversible following therapy”. For the same compound, the dose limiting events [4, 8] was “No dose limiting events”, the tolerability ([4]; both cohorts) was “well tolerated” and the “cessation of therapy for adverse effect” value ([4]; exacerbation of pre-existing anxiety) was “One subject ceased therapy for adverse effect”. The common adverse events ([4]; generally mild and self-limited, or resolved following cessation of therapy) was “neutropenia, constipation, anemia not requiring transfusion, fatigue, and rash”, the “unplanned hospitalizations, febrile neutropenia, thromboembolic events” value ([4]; with aspirin 81 mg daily thromboprophylaxis) was “No unplanned hospitalizations, no febrile neutropenia, and no thromboembolic events” and the p21 levels [5] was “most effective in up-regulating p21”. The “HIV VL” value ([6]; plasma, ultrasensitive single copy assay) was “no significant change”, the “Plasma HIV VL (copies/mL) Change to End Therapy (Med, range)” value [6, 9] was −0.5 copies/mL and the “Plasma HIV VL (copies/mL) Change to Week 8 (Med, range)” value [6, 9] was “+0.75 copies/mL”. The “Plasma HIV VL (copies/mL) Change to Week 4 (Med, range)” value ([6]; restricted to the 15 HIV positive subjects, paired data for 10-13 patients, baseline 1.5) was “+0.3 copies/mL”.
